Results published in PMC12692147, “Surface Acoustic Waves-Based Molecular Recognition of a Collagen Receptor on Human Erythrocytes” (International Journal of Molecular Sciences, 2025).
“Also recorded” adds a separate entry of the source.

Key:
[1] = test system: αVβ3 integrin; details: cited from earlier work
Excerpt: (§1) Integrin-mediated binding is important for the metastatic dissemination of different types of cancer cells. […] Obtustatin is one of the shortest disintegrins yet described, containing 41 amino acids. It has a similar pattern of cysteines to the other disintegrin echistatin but with a KTS motif rather than a classic RGD in its active site. […] Echistatin is a 49-amino-acid peptide belonging to the disintegrins family derived from Echis carinatus snake venom. […] Obtustatin, comprising only 41 amino acid residues, is one of the shortest disintegrins characterized to date. It was purified from the venom of the Subcaucasian subspecies of the Levantine viper—Macrovipera ...

[2] = test system: platelet aggregation and cellular adhesion; details: background statement; ref [14] (preceding sentence); cited from earlier work
Excerpt: Disintegrins are the large family of anti-adhesive proteins found in viper venom, whose structural and functional complexity contrasts with their small molecular size. Echistatin is a 49-amino-acid peptide belonging to the disintegrins family derived from Echis carinatus snake venom. […] Obtustatin, comprising only 41 amino acid residues, is one of the shortest disintegrins characterized to date. It was purified from the venom of the Subcaucasian subspecies of the Levantine viper—Macrovipera ...

[3] = target: integrins in an immobilized erythrocyte ghost membrane; assay: SAW biosensor binding of disintegrins to immobilized erythrocyte ghosts; design: species or system human; details: for Kd / kon / koff: SAW (sam-X), erythrocyte ghosts immobilized via hydrophobic interactions (CH3-SAM), running buffer PBS pH 7.4, 25 °C, 20 μL/min, 1:1 binding model, experiments in triplicate; for Kd: KD = koff/kon; for kon: slope of kobs vs c, kobs of five channels averaged; for koff: y-intercept of kobs vs c; for KD (range in words): SAW, erythrocyte ghost membrane; for KD (range in words) / phase response on erythrocyte ghosts vs. unspecific binding to GUVs: result in words; for specificity of binding to erythrocyte ghost membrane: authors' conclusion in words; for phase response on erythrocyte ghosts vs. unspecific binding to GUVs: titration with increasing concentrations of disintegrins, GUVs (bovine brain phospholipids) on a parallel channel
Protocol: To detect disintegrin/erythrocyte ghost binding at the molecular level, a surface acoustic wave (SAW) biosensor was used (Figure 1). The machines of SAW instruments use a detection technology resembling a highly sensitive “weight detector”. Binding processes are measured by real mass changes on the surface. Basically, the sensor is a chip, whereby the surface is excited to oscillate acoustically. Acoustic waves are generated in the piezoelectric material and propagate laterally. Response to changes in the surface-bound material and configuration is achieved through a proprietary method that produces a modified oscillation. […] The phase of the wave is shifted on mass changes. A change in amplitude indicates viscoelastic and conformational characteristics. Both effects can be differentiated and detected independently for interaction analysis.
A similar amount of erythrocyte ghosts and GUVs were successfully immobilized on (1) positively poly-L-lysin charged 2D CM-dextran, (2) EDC/NHS-activated, negatively charged 2D CM-dextran, and (3) hydrophobic–CH3-SAM. The positively charged disintegrins were repelled from all charged surfaces; therefore, immobilization via hydrophobic interactions was chosen for the main core of experiments (Figure 2). Disintegrins were diluted in PBS to achieve similar immobilization levels; in a pre-experiment, all ligands were diluted 1:3, and then dilutions were adjusted. Experiments were performed in triplicate, starting with obtustatin, then echistatin, then vice versa. The baseline was stable; at immobilization of GUVs on a chip, a 14° phase shift was detected vs. 13.1° for the erythrocyte ghosts. In this set of experiments, GUVs formed from the phospholipid fraction of the bovine brain were used as a negative control for erythrocyte ghosts.
Based on the 1:1 binding model, a KD value was calculated depending on the fit model applied for the interaction of disintegrins with integrins in the erythrocyte ghosts. Data were obtained from sensor signals after the administration of increasing concentrations of disintegrins using the monomolecular growth model. The observed rate constants (kobs) were determined from the rising phase of the sensor response curves for each analyte concentration and plotted against the corresponding disintegrin concentrations. A linear regression was performed on the dataset according to the equationkobs = kon × c + koff where kon represents the association rate constant, koff is the dissociation rate constant, and c is the concentration of the injected analyte (see Figure 3C,D).
Erythrocyte membranes were obtained by the method of Dodge, Mitchell & Hanahan, as described. To obtain erythrocyte ghosts, after the last wash the RBC pellet was mixed with nine volumes of ice-cold lysis buffer (5 mM sodium phosphate) and stirred for 15 min at 0 °C. Subsequently, the unsealed erythrocyte ghosts were pelleted by centrifugation at 37,000× g for 10 min at 0 °C. After the centrifugation the ghosts were washed with ice-cold lysis buffer until residual hemoglobin was not visible. The RBC ghosts were suspended in about 0.5 volume of PBS and were kept frozen at −30 °C until use.
Biosensor investigations were performed using a sam®-X system Surface Acoustic Wave biosensor supplied by SAW instruments (GmbH, Bonn, Germany), as described before. Gold-coated sensors were incubated in a solution of 11-mercaptoundecanoic acid (10 mM) in ethanol abs. forming a self-assembled monolayer by binding of the sulfur headgroups to the gold surface ([…]). The carboxyl groups were activated with 200 mM N-ethyl-N-(dimethylaminopropyl)-carbodiimide (EDC) and 50 mM N-hydroxysuccinimide (NHS) to bind disintegrins and/or vesicles. An excess of activated unreacted NHS esters was blocked by 1 M ethanolamine (pH 8.5). Running buffer was PBS containing 2.7 mM potassium chloride and 137 mM sodium chloride (pH 7.4 at 25 °C); flow rate was 40/20 μL/min. […]

[4] = test system: α1β1 integrin; details: cited from earlier work
Excerpt: as §1

[5] = target: αVβ3 integrin (Homo sapiens) (UniProt P06756); details: cited from earlier work
[6] = stated in abstract without reference

UniProt P06756, sequence (P06756 31-1048, chain 1 of 2): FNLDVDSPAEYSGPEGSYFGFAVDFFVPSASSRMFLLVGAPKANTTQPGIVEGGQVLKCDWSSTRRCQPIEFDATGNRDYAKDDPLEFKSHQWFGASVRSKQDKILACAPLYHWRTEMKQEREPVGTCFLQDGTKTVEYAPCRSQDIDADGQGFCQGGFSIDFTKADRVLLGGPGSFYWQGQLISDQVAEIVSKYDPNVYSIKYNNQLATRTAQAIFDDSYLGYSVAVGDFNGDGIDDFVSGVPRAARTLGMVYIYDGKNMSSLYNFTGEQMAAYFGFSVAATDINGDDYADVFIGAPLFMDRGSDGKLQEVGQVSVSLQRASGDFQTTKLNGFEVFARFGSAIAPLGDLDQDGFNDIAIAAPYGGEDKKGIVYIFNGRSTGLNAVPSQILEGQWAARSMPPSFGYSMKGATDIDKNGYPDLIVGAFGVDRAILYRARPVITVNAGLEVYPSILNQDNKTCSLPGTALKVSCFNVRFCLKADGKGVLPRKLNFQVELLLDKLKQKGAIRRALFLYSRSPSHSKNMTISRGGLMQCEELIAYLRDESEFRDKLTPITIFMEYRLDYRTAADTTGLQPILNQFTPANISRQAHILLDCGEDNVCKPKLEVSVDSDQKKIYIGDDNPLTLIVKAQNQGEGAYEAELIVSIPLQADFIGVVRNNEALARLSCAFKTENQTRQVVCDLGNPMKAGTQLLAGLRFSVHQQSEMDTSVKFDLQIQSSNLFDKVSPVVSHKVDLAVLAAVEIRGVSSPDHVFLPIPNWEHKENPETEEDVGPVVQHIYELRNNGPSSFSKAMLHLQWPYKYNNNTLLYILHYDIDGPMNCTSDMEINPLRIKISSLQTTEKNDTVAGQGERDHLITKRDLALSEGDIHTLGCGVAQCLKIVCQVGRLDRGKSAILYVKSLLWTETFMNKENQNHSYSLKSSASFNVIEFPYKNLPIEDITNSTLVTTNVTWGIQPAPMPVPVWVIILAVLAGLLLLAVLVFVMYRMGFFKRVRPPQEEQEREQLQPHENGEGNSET
UniProt P06756, sequence (P05106 27-788, chain 2 of 2, further chain): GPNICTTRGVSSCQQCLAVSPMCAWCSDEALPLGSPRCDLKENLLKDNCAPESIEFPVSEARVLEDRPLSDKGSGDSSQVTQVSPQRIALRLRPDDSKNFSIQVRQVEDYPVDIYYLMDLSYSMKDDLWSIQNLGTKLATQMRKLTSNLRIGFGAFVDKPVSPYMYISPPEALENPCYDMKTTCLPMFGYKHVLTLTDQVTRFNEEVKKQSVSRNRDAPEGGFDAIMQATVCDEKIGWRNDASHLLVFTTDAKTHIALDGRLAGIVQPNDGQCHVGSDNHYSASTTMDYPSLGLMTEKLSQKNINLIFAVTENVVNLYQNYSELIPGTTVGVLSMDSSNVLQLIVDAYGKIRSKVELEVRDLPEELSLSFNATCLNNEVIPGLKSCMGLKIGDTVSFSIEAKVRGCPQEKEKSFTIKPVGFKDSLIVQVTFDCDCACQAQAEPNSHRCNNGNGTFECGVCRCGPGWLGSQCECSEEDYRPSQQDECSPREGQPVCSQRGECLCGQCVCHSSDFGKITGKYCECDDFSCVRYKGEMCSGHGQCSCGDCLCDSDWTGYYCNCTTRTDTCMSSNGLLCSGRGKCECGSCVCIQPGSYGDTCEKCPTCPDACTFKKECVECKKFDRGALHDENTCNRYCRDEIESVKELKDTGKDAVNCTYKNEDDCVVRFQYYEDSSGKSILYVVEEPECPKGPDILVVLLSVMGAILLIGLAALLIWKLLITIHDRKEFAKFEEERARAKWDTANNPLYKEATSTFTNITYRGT

Substance | αVβ3 integrin antagonism ([1]; ref [20],[21],[22]) | αvβ3 integrin inhibition [1, 6] | inhibition of platelet aggregation and cellular adhesion [2] | Kd [3] | kon [3] | koff [3] | KD (range in words) [3] | specificity of binding to erythrocyte ghost membrane [3] | phase response on erythrocyte ghosts vs. unspecific binding to GUVs [3] | α1β1 integrin blockade, selectivity ([4]; ref [17],[18],[19]) | α1β1 integrin inhibition [4, 6] | Ki [5]
ECESGPCCRNCKFLKEGTICKR—ARGD-DMDDYCNGKTCDCPRNPHKGPAT (disulfide) [Echistatin] | potent irreversible αVβ3 integrin antagonist | potent, irreversible, and selective inhibitors | highly effective inhibitor of platelet aggregation and cellular adhesion | 2100 nM | (4.22 ± 0.002) × 10^2 M^−1 s^−1 | (8.85 ± 0.03) × 10^−4 s^−1 | low micromolar range | could be evidence of some unspecific binding | remarkably lower | – | – | –
CTTGPCCRQCKLKPAGTTCW-----KTS--LTSHYCTGKSCDCPLYPG (disulfide) [Obtustatin] | – | – | – | 232 nM | (5.34 ± 0.9) × 10^3 M^−1 s^−1 | (1.238 ± 0.8) × 10^−3 s^−1 | mid-nanomolar range | specific molecular recognition for both disintegrins, but the higher response for obtustatin; also recorded: specific binding of the obtustatin with the erythrocyte ghost membrane in the 1:1 binding mode | the highest difference is observable | block α1β1 integrin in a highly selective manner | potent, irreversible, and selective inhibitors | –
echistatin (from UniProt P17347) | – | – | – | – | – | – | – | – | – | – | – | 0.27 nM
